33 molecules from ChEMBL document CHEMBL1150771, “Synthesis and potency of novel uracil nucleotides and derivatives as P2Y2 and P2Y6 receptor agonists” (Bioorg Med Chem, 2008) can be followed below.

For orientation: EC50 means the concentration at which the effect is half-maximal.

Bounds are passed on as bounds.

The target in one experiment is P2Y purinoceptor 6 (Homo sapiens, UniProt Q15077). In words: Agonist activity at human P2Y6 receptor expressed in human 1321N1 cells assessed as [3H]inositol phosphate accumulation by scintillation proximity assay. Type of experiment: functional, cell-based. In general terms: Scintillation proximity formats need no separation of bound from free tracer.
P2Y purinoceptor 6, sequence (Q15077 whole entry): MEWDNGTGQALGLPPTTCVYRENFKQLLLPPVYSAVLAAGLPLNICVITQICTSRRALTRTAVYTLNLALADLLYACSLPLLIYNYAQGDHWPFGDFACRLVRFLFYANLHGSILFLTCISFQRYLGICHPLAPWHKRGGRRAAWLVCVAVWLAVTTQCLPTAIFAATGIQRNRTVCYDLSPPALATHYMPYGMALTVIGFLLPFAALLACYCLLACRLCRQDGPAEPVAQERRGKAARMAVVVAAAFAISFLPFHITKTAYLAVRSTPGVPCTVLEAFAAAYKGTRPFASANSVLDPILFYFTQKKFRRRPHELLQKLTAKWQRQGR
In the next experiment the target is P2Y purinoceptor 2 (Homo sapiens, UniProt P41231). In words: Agonist activity at human P2Y2 receptor expressed in human 1321N1 cells assessed as [3H]inositol phosphate accumulation by scintillation proximity assay. It counts as functional, cell-based.
P2Y purinoceptor 2, sequence (P41231 whole entry): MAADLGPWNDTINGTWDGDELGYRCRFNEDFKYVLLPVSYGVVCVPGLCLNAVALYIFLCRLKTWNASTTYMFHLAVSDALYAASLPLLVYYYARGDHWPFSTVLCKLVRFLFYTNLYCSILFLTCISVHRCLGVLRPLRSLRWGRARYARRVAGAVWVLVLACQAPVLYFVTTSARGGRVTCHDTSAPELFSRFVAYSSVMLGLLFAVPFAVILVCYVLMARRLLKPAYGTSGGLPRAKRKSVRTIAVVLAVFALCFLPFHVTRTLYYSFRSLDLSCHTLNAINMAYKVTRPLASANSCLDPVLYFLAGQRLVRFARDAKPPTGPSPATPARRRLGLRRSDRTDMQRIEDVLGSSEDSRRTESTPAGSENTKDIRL
The next experiment concerns the target P2Y purinoceptor 4 (Homo sapiens, UniProt P51582). In words: Agonist activity at human P2Y4 receptor expressed in human 1321N1 cells assessed as [3H]inositol phosphate accumulation by scintillation proximity assay. Type of experiment: functional, cell-based.
For another experiment, the species on record is Homo sapiens. In words: Selectivity for human P2Y2 receptor over human P2Y4 receptor.

P2Y purinoceptor 4, sequence (P51582 whole entry): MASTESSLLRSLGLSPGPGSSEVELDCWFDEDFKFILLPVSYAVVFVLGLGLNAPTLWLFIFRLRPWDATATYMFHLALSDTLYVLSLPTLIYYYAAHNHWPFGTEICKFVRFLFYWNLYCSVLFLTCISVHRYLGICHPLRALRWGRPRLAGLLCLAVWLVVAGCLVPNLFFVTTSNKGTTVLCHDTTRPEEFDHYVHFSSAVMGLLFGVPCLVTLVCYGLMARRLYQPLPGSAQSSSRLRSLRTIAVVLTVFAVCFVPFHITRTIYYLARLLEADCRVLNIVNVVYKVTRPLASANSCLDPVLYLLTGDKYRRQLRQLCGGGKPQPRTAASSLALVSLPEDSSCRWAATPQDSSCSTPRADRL

Turning to `N#CCCOP(=O)(O)OP(=O)(O)OP(=O)(O)OP(=O)(O)OC[C@H]1O[C@@H](n2ccc(=O)[nH]c2=O)[C@H](O)[C@@H]1O`, the EC50 is greater than 10 µM on P2Y purinoceptor 6, 1.7 µM on P2Y purinoceptor 2 and 1.96 µM on P2Y purinoceptor 4.
Take `O=c1ccn([C@@H]2O[C@H](COP(=O)(O)CP(=O)(O)O)[C@@H](O)[C@H]2O)c(=O)[nH]1`: the EC50 on P2Y purinoceptor 6 amounted to 0.66 µM.
On to `O=c1ccn([C@@H]2O[C@H](COP(=O)(O)OP(=O)(O)OP(=O)(O)O)[C@@H](O)[C@@H]2O)c(=S)[nH]1`, for which the EC50 on P2Y purinoceptor 2 came to 0.14 µM; on P2Y purinoceptor 4 it was 7.93 µM.
For `C[C@@]1(O)[C@H](O)[C@@H](COP(=O)(O)OP(=O)(O)OP(=O)(O)O)O[C@H]1n1ccc(=O)[nH]c1=O`, in that order: 1.45 µM and 1.26 µM.
On to `NC(=O)N[C@@H]1[C@H](O)[C@@H](COP(=O)(O)OP(=O)(O)OP(=O)(O)O)O[C@H]1n1ccc(=O)[nH]c1=O`, for which the EC50 at P2Y purinoceptor 6 is greater than 10 µM; at P2Y purinoceptor 2, 1.74 µM; on P2Y purinoceptor 4, 4.64 µM.
Take `NC(=O)N[C@@H]1[C@H](O)[C@@H](COP(=O)(O)OP(=O)(O)O)O[C@H]1n1ccc(=O)[nH]c1=O`: the EC50 on P2Y purinoceptor 6 amounted to 4.7 µM.
On to `O=c1ccn([C@@H]2O[C@H](COP(=O)(O)OP(=O)(O)OP(=O)(O)OC[C@H]3O[C@@H](n4cc(I)c(=O)[nH]c4=O)[C@H](O)[C@@H]3O)[C@H]3OC(Cc4ccccc4)O[C@H]32)c(=O)[nH]1` (stereo not given in full), for which the figures for the EC50 on P2Y purinoceptor 6 and at P2Y purinoceptor 2 were 5.49 µM and 9.97 µM, respectively.
Regarding `O=c1ccn([C@@H]2O[C@H](COP(=O)(O)OP(=O)(O)OP(=O)(O)OP(=O)(O)O)[C@@H](O)[C@H]2O)c(=S)[nH]1`, the results for the EC50 at P2Y purinoceptor 6, on P2Y purinoceptor 2 and on P2Y purinoceptor 4 were 6.83 µM, 0.6 µM and 5.52 µM, respectively.
For `O=c1ccn([C@@H]2O[C@H](COP(=O)(O)OP(=O)(O)OP(=O)(O)OP(=O)(O)OC[C@@H]3OC(O)[C@@H](O)[C@H]3O)[C@@H](O)[C@H]2O)c(=O)[nH]1` (stereo not given in full) the same measures were greater than 10 µM, 1.88 µM and 4.78 µM.
In the case of `Nc1ccn([C@H]2C[C@H](O)[C@@H](COP(=O)(O)OP(=O)(O)OP(=O)(O)OP(=O)(O)OC[C@H]3O[C@@H](n4ccc(=O)[nH]c4=O)[C@H](O)[C@@H]3O)O2)c(=O)n1` [DENUFOSOL], the EC50 was 0.95 µM at P2Y purinoceptor 6, 0.14 µM at P2Y purinoceptor 2 and 0.14 µM on P2Y purinoceptor 4.
`CSc1ccn([C@@H]2O[C@H](COP(=O)(O)OP(=O)(O)OP(=O)(O)O)[C@@H](O)[C@H]2O)c(=S)n1`: the values for the EC50 on P2Y purinoceptor 6, on P2Y purinoceptor 2 and on P2Y purinoceptor 4 were greater than 10 µM, 0.91 µM and 5.35 µM, respectively.
For `Nc1nc2c(ncn2[C@H]2C[C@H](O)[C@@H](COP(=O)(O)OP(=O)(O)OP(=O)(O)OP(=O)(O)OC[C@H]3O[C@@H](n4ccc(=O)[nH]c4=O)[C@H](O)[C@@H]3O)O2)c(=O)[nH]1` the same measures were 1.03 µM, 0.14 µM and 0.54 µM.
For `O=c1ccn([C@@H]2O[C@H](COP(=O)(O)OP(=O)(O)OP(=O)(O)OP(=O)(O)OC[C@H]3OC(O)[C@@H](O)[C@@H](O)[C@@H]3O)[C@@H](O)[C@H]2O)c(=O)[nH]1` (stereo not given in full), in that order: greater than 10 µM, greater than 10 µM and greater than 10 µM.
For `O=c1ccn([C@@H]2O[C@H](COP(=O)(O)OP(=O)(O)OP(=O)(O)O)[C@@H](O)[C@H]2O)c(=O)[nH]1` [URIDINE TRIPHOSPHATE], in that order: greater than 10 µM, 0.06 µM and 0.09 µM.
On to `O=c1ccn([C@@H]2O[C@H](COP(=O)(O)OP(=O)(O)C(F)(F)P(=O)(O)OP(=O)(O)OC[C@H]3O[C@@H](n4ccc(=O)[nH]c4=O)[C@H](O)[C@@H]3O)[C@@H](O)[C@H]2O)c(=O)[nH]1`, for which the figures for the EC50 at P2Y purinoceptor 6, on P2Y purinoceptor 2 and on P2Y purinoceptor 4 were greater than 10 µM, 2.27 µM and greater than 10 µM, respectively.
Regarding `O=c1[nH]c(=S)ccn1[C@@H]1O[C@H](COP(=O)(O)OP(=O)(O)OP(=O)(O)OP(=O)(O)OC[C@H]2O[C@@H](n3ccc(=S)[nH]c3=O)[C@H](O)[C@@H]2O)[C@@H](O)[C@H]1O`, the EC50 at P2Y purinoceptor 6 is 2.03 µM; on P2Y purinoceptor 2, 0.03 µM; on P2Y purinoceptor 4, 0.08 µM.
On to `O=c1ccn([C@@H]2O[C@H](COP(=O)(O)OP(=O)(O)C(Cl)(Cl)P(=O)(O)OP(=O)(O)OC[C@H]3O[C@@H](n4ccc(=O)[nH]c4=O)[C@H](O)[C@@H]3O)[C@@H](O)[C@H]2O)c(=O)[nH]1`, for which the EC50 on P2Y purinoceptor 2 was determined as 7.77 µM.
Regarding `O=c1ccn([C@@H]2O[C@H](COP(=O)(O)OP(=O)(O)C(F)(F)P(=O)(O)O)[C@@H](O)[C@H]2O)c(=S)[nH]1`, the EC50 at P2Y purinoceptor 6 was 5.15 µM; on P2Y purinoceptor 2 it was 1.63 µM; at P2Y purinoceptor 4, 8.11 µM.
For `O=c1ccn([C@@H]2O[C@H](COP(=O)(O)OP(=O)(O)OP(=O)(O)OP(=O)(O)O[C@H]3O[C@H](CO)[C@H](O)[C@H](O)[C@H]3O)[C@@H](O)[C@H]2O)c(=O)[nH]1` the same measures were 8.19 µM, 4.85 µM and 1.77 µM.
For `COP(=O)(O)OP(=O)(O)OP(=O)(O)OP(=O)(O)OC[C@H]1O[C@@H](n2ccc(=O)[nH]c2=O)[C@H](O)[C@@H]1O` the same measures were greater than 10 µM, 3.95 µM and 2.7 µM.
For `O=c1ccn([C@@H]2O[C@H](COP(=O)(O)OP(=O)(O)OP(=O)(O)OP(=O)(O)O[C@H]3O[C@H](CO)[C@@H](O)[C@H](O)[C@H]3O)[C@@H](O)[C@H]2O)c(=O)[nH]1`, in that order: 7.83 µM, 0.3 µM and 2.06 µM.
Take `O=c1ccn([C@@H]2O[C@H](COP(=O)(O)OP(=O)(O)OP(=O)(O)OP(=O)(O)OC3CCCCC3)[C@@H](O)[C@H]2O)c(=O)[nH]1`: the EC50 is greater than 10 µM at P2Y purinoceptor 6, 5.86 µM on P2Y purinoceptor 2 and greater than 10 µM at P2Y purinoceptor 4.
For the molecule `O=c1ccn([C@@H]2O[C@H](COP(=O)(O)OP(=O)(O)OP(=O)(O)OP(=O)(O)OC[C@@H]3O[C@@](O)(CO)[C@H](O)[C@H]3O)[C@@H](O)[C@H]2O)c(=O)[nH]1`, the EC50 worked out at 3.33 µM on P2Y purinoceptor 2 and 6.3 µM at P2Y purinoceptor 4.
On to `O=c1ccn([C@@H]2O[C@H](COP(=O)(O)OP(=O)(O)OP(=O)(O)OP(=O)(O)Oc3ccccc3)[C@@H](O)[C@H]2O)c(=O)[nH]1`, for which, at P2Y purinoceptor 2, the EC50 was 1.89 µM.
`Nc1ccn([C@H]2C[C@H](O)[C@@H](COP(=O)(O)OP(=O)(O)OP(=O)(O)OP(=O)(O)OC[C@H]3O[C@@H](n4ccc(=O)[nH]c4=S)[C@H](O)[C@@H]3O)O2)c(=O)n1`: the EC50 was 1.05 µM on P2Y purinoceptor 6, 0.08 µM on P2Y purinoceptor 2 and 0.71 µM at P2Y purinoceptor 4. For the same molecule, the Ratio EC50 in the experiment listed under Homo sapiens was determined as 9.
For `O=c1ccn([C@@H]2O[C@H](COP(=O)(O)OP(=O)(O)OP(=O)(O)OP(=O)(O)OP(=O)(O)O)[C@@H](O)[C@H]2O)c(=S)[nH]1`, the results for the EC50 at P2Y purinoceptor 6, at P2Y purinoceptor 2 and at P2Y purinoceptor 4 were 7.33 µM, 0.57 µM and 5.27 µM, respectively.
For `O=c1ccn([C@@H]2O[C@H](COP(=O)(O)OP(=O)(O)OP(=O)(O)OP(=O)(O)O)[C@@H](O)[C@H]2O)c(=O)[nH]1` the same measures were 7.56 µM, 2.61 µM and 4.64 µM.
For `O=c1ccn([C@@H]2O[C@H](COP(=O)(O)OP(=O)(O)OP(=O)(O)OC[C@H]3O[C@@H](n4ccc(=O)[nH]c4=O)[C@H](O)[C@@H]3O)[C@@H](O)[C@H]2O)c(=O)[nH]1` the same measures were 0.27 µM, 1.31 µM and 0.87 µM.
For `O=c1[nH]c(=S)ccn1[C@@H]1O[C@H](COP(=O)(O)OP(=O)(O)OP(=O)(O)OP(=O)(O)O)[C@@H](O)[C@H]1O` the same measures were 6.46 µM, 0.07 µM and 0.28 µM.
As to `Nc1cn([C@@H]2O[C@H](COP(=O)(O)OP(=O)(O)O)[C@@H](O)[C@H]2O)c(=O)[nH]c1=O`, the EC50 at P2Y purinoceptor 6 was found to be 0.61 µM.
Turning to `O=c1ccn([C@@H]2O[C@H](COP(=O)(O)OP(=O)(O)OP(=O)(O)OP(=O)(O)OC[C@H]3OC(O)C[C@@H](O)[C@@H]3O)[C@@H](O)[C@H]2O)c(=O)[nH]1` (stereo not given in full), the EC50 at P2Y purinoceptor 6 is greater than 10 µM; on P2Y purinoceptor 2 it was 3.54 µM; at P2Y purinoceptor 4 it was 4.32 µM.
For `O=c1ccn([C@@H]2O[C@H](COP(=O)(O)OP(=O)(O)OP(=O)(O)OP(=O)(O)OCC(O)CO)[C@@H](O)[C@H]2O)c(=O)[nH]1` (stereo not given in full), in that order: 8.19 µM, 1.87 µM and 1.12 µM.
`O=c1ccn([C@@H]2O[C@H](COP(=O)(O)OP(=O)(O)C(Cl)(Cl)P(=O)(O)O)[C@@H](O)[C@H]2O)c(=S)[nH]1`: the EC50 at P2Y purinoceptor 6 was greater than 10 µM; on P2Y purinoceptor 2 it was 2.51 µM.
